Measured values reported in US7396554B2, “Antioxidant sesame extract” (Council of Scientific & Industrial Research, priority 2002, dated 2008).

Experiments:
[1] = DPPH radical quenching / free radical scavenging test; assay type: biochemical; settings: Conc. of antioxidant 20 μM
Procedure: The radical quenching efficiency of the extract was also tested by widely reported standard methods like di-phenyl picryl hydrazyl (DPPH) radical according to the methods of W. Brand Williams, M. E. Cuvelier and C. Berset, Lebesm.-Wiss.

[2] = DSC oxidative stability of soybean oil, isothermal 150° C. under oxygen flow; settings: soybean oil stored one week at 60° C.; antioxidant 200 mg per Kg of oil
Source text: DSC experiments: Differential Scanning Calorimeter. The Mettler Toledo instrument used for carrying out the studies, is configured to follow oxidative stability of vegetable oils at a desired higher temperature under oxygen flow. […] With the help of an inbuilt program of the instrument, the induction period in ‘time-units’ could be calculated. This is indicated in the diagram as ‘onset’ time. Longer ‘onset’ time indicates better protection. […] DSC profiles of purified sesame extracts have been included here. In FIG. 6, the oxidative stability of soybean oil stored at 60° C. for 7 days has been depicted. (The storage study continued for one month. The extent of protection as measured in DSC was studied here.). Each experiment such as Control alone, (soybean oil+BHT), (oil+TBHQ), (oil+Sesame extract at 10 ppm, 50 ppm, 200 ppm) etc were carried out separately. For comparison sake, the different profiles have been overlaid in the same figure. In FIG. 6, the concentrations of BHT and TBHQ are 200 mg per Kg. of oil. For comparison, the profile of oil containing sesame extract at 50 ppm is also depicted in the overlaid diagram. […]

[3] = DSC oxidative stability of safflower oil, isothermal 150° C. under oxygen flow; settings: fresh safflower oil; antioxidant 200 mg per Kg of oil
Source text: DSC experiments: Differential Scanning Calorimeter. The Mettler Toledo instrument used for carrying out the studies, is configured to follow oxidative stability of vegetable oils at a desired higher temperature under oxygen flow. […] With the help of an inbuilt program of the instrument, the induction period in ‘time-units’ could be calculated. This is indicated in the diagram as ‘onset’ time. Longer ‘onset’ time indicates better protection. […] DSC profiles of purified sesame extracts have been included here. As explained elsewhere, the Figure represents overlaid DSC profiles of safflower oil containing synthetic and sesame antioxidants at few select concentrations. The onset time has been recorded in the printout of the profile. The oxidative stability of vegetable oils containing synthetic antioxidants (BHT and TBHQ at 50-200 ppm) and sesame extract at different levels 3 to 1000 ppm were also tested in the Differential Scanning Calorimeter (Mettler Toledo, model 821) under flow of oxygen (40 ml/min.). The heating regime followed was isothermal at 150° C. and from the curves obtained (FIGS. 6, 7), the ‘onset-time’ of oxidative changes under identical conditions could be found out by making use of an inbuilt program of the instrument, the induction period represented by the onset time, can be correlated with the onset of rancidity.

[4] = tested on: rats; settings: Nobuyuki Ito 1982, cited via U.S. Pat. No. 5,043,100; cited from earlier work

Row | Molecule | Free radical Scavenging Effect after 30 min. [1] | DSC onset time [2] [min] | DSC onset time [3] [min] | carcinogenicity [4]
1 | CC(C)(C)c1cc(O)ccc1O [TBHQ, tert-Butyl Hydro Quinone] | 98.88 | 20.48 | 10.01 | –
2 | Catechin | 98.51 | – | – | –
3 | COc1ccc(O)c(C(C)(C)C)c1 [BHA, Butylated Hydroxy Anisole] | – | – | – | carcinogenic in rats
4 | Cc1cc(C(C)(C)C)c(O)c(C(C)(C)C)c1 [BHT, Butylated Hydroxy Toluene] | 81.61 | 7.30 | 7.23 | –
5 | O=C(OC[C@H]1O[C@@H](OC(=O)c2cc(O)c(O)c(OC(=O)c3cc(O)c(O)c(O)c3)c2)[C@H](OC(=O)c2cc(O)c(O)c(OC(=O)c3cc(O)c(O)c(O)c3)c2)[C@@H](OC(=O)c2cc(O)c(O)c(OC(=O)c3cc(O)c(O)c(O)c3)c2)[C@@H]1OC(=O)c1cc(O)c(O)c(OC(=O)c2cc(O)c(O)c(O)c2)c1)c1cc(O)c(O)c(OC(=O)c2cc(O)c(O)c(O)c2)c1 [Tannic Acid] | 98.88 | – | – | –
